These are literature values, as cited in patent US9555001B2, “Pharmaceutical composition and uses thereof” (Boehringer Ingelheim International GmbH, priority 2012, dated 2017).

The conditions of the series: crystalline form described in WO 2006/117359.

Consider `OC[C@H]1O[C@@H](c2ccc(Cl)c(Cc3ccc(O[C@H]4CCOC4)cc3)c2)[C@H](O)[C@@H](O)[C@@H]1O` [Compound “A”, 1-chloro-4-(β-D-glucopyranos-1-yl)-2-[4-((S)-tetrahydrofuran-3-yloxy)-benzyl]-benzene], for which the physico-chemical stability entry is on record as “physico-chemically stable” and the solubility entry was “good solubility properties”.
